In the supplement of paper PMC5908809:

Tests used:
[1] = tested on: normal NK cells expanded with K562-aAPC; assay: percent inhibition of viability; higher = more inhibition; conditions: 72 h, IL-2 2.5 ng/mL
Experimental: (§1)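 Drug sensitivity and resistance testing on K562-aAPC-expanded normal NK cells: 5 concentrations (10-fold steps over a 10,000-fold range), 72 h at 37 °C, viability by CellTiter-Glo normalised to DMSO and benzethonium chloride controls; DSS from the fitted curve.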

[2] = tested on: DERL-7 (IL-2 2.5 ng/mL); assay: as above; conditions: 72 h
[3] = tested on: IMC-1 (IL-2 20 ng/mL); assay: as above; conditions: 72 h
[4] = tested on: KAI3 (IL-2 2.5 ng/mL); assay: as above; conditions: 72 h
[5] = tested on: KHYG-1 (IL-2 2.5 ng/mL); assay: as above; conditions: 72 h
[6] = tested on: NK-92 (IL-2 2.5 ng/mL); assay: as above; conditions: 72 h
[7] = tested on: NK-YS (IL-2 2.5 ng/mL); assay: as above; conditions: 72 h
[8] = tested on: NKL (IL-2 2.5 ng/mL); assay: as above; conditions: 72 h
[9] = tested on: SNK-6 (IL-2 2.5 ng/mL); assay: as above; conditions: 72 h
[10] = tested on: YT (IL-2 2.5 ng/mL); assay: as above; conditions: 72 h
[11] = tested on: normal primary NK cells, pool 1 (3 donors) (IL-2 2.5 ng/mL); assay: as above; conditions: 72 h
[12] = tested on: normal primary NK cells, pool 1 (3 donors), resting (IL-2 0 ng/mL); assay: as above; conditions: 72 h
[13] = tested on: normal primary NK cells, pool 2 (3 donors) (IL-2 2.5 ng/mL); assay: as above; conditions: 72 h
[14] = tested on: normal primary NK cells, pool 3 (3 donors) (IL-2 2.5 ng/mL); assay: as above; conditions: 72 h
[15] = tested on: normal NK cells expanded with K562-aAPC; assay: drug sensitivity score (DSS) (DSS units); higher = more sensitive; extreme values may be limits of the assay; conditions: 72 h; IL-2 2.5 ng/mL
Experimental: as §1

[16] = tested on: DERL-7 (IL-2 2.5 ng/mL); assay: as above; conditions: 72 h
[17] = tested on: IMC-1 (IL-2 20 ng/mL); assay: as above; conditions: 72 h
[18] = tested on: KAI3 (IL-2 2.5 ng/mL); assay: as above; conditions: 72 h
[19] = tested on: KHYG-1 (IL-2 2.5 ng/mL); assay: as above; conditions: 72 h
[20] = tested on: NK-92 (IL-2 2.5 ng/mL); assay: as above; conditions: 72 h
[21] = tested on: NK-YS (IL-2 2.5 ng/mL); assay: as above; conditions: 72 h
[22] = tested on: NKL (IL-2 2.5 ng/mL); assay: as above; conditions: 72 h
[23] = tested on: SNK-6 (IL-2 2.5 ng/mL); assay: as above; conditions: 72 h
[24] = tested on: YT (IL-2 2.5 ng/mL); assay: as above; conditions: 72 h
[25] = tested on: normal primary NK cells, pool 1 (3 donors) (IL-2 2.5 ng/mL); assay: as above; conditions: 72 h
[26] = tested on: normal primary NK cells, pool 1 (3 donors), resting (IL-2 0 ng/mL); assay: as above; conditions: 72 h
[27] = tested on: normal primary NK cells, pool 2 (3 donors) (IL-2 2.5 ng/mL); assay: as above; conditions: 72 h
[28] = tested on: normal primary NK cells, pool 3 (3 donors) (IL-2 2.5 ng/mL); assay: as above; conditions: 72 h

CN(N=O)C(=O)N[C@@H](C=O)[C@@H](O)[C@H](O)[C@H](O)CO [Streptozocin] (max concentration tested 10000 nM)
percent inhibition of viability ([1]; 1 nM): -0.04% | percent inhibition of viability ([1]; 10 nM): 4.41% | percent inhibition of viability ([1]; 100 nM): 2.61% | percent inhibition of viability ([1]; 1000 nM): 7.51% | percent inhibition of viability ([1]; 10000 nM): 13.9% | percent inhibition of viability ([2]; 1 nM): -4.65% | percent inhibition of viability ([2]; 10 nM): -4.39% | percent inhibition of viability ([2]; 100 nM): -0.36% | percent inhibition of viability ([2]; 1000 nM): -4.36% | percent inhibition of viability ([2]; 10000 nM): -9.4% | percent inhibition of viability ([3]; 1 nM): -3% | percent inhibition of viability ([3]; 10 nM): -1.77% | percent inhibition of viability ([3]; 100 nM): 1.49% | percent inhibition of viability ([3]; 1000 nM): 5.01% | percent inhibition of viability ([3]; 10000 nM): 21.2% | percent inhibition of viability ([4]; 1 nM): -8.8% | percent inhibition of viability ([4]; 10 nM): -7.24% | percent inhibition of viability ([4]; 100 nM): -7.83% | percent inhibition of viability ([4]; 1000 nM): -15.1% | percent inhibition of viability ([4]; 10000 nM): -3.23% | percent inhibition of viability ([5]; 1 nM): -0.99% | percent inhibition of viability ([5]; 10 nM): -4.93% | percent inhibition of viability ([5]; 100 nM): 2.57% | percent inhibition of viability ([5]; 1000 nM): -0.52% | percent inhibition of viability ([5]; 10000 nM): 4.73% | percent inhibition of viability ([6]; 1 nM): -10.2% | percent inhibition of viability ([6]; 10 nM): -0.49% | percent inhibition of viability ([6]; 100 nM): -2.54% | percent inhibition of viability ([6]; 1000 nM): -2.99% | percent inhibition of viability ([6]; 10000 nM): -3.48% | percent inhibition of viability ([7]; 1 nM): -3.08% | percent inhibition of viability ([7]; 10 nM): -5.94% | percent inhibition of viability ([7]; 100 nM): 5.25% | percent inhibition of viability ([7]; 1000 nM): -5.62% | percent inhibition of viability ([7]; 10000 nM): 10.8% | percent inhibition of viability ([8]; 1 nM): -22.4% | percent inhibition of viability ([8]; 10 nM): -14.9% | percent inhibition of viability ([8]; 100 nM): -15.8% | percent inhibition of viability ([8]; 1000 nM): -16.6% | percent inhibition of viability ([8]; 10000 nM): -9.59% | percent inhibition of viability ([9]; 1 nM): 4.98% | percent inhibition of viability ([9]; 10 nM): 18.1% | percent inhibition of viability ([9]; 100 nM): 36.6% | percent inhibition of viability ([9]; 1000 nM): 23.4% | percent inhibition of viability ([9]; 10000 nM): 36.7% | percent inhibition of viability ([10]; 1 nM): -1.12% | percent inhibition of viability ([10]; 10 nM): -3.14% | percent inhibition of viability ([10]; 100 nM): 1.58% | percent inhibition of viability ([10]; 1000 nM): -0.51% | percent inhibition of viability ([10]; 10000 nM): 9.38% | percent inhibition of viability ([11]; 1 nM): -0.38% | percent inhibition of viability ([11]; 10 nM): -7.4% | percent inhibition of viability ([11]; 100 nM): -2.69% | percent inhibition of viability ([11]; 1000 nM): -9.47% | percent inhibition of viability ([11]; 10000 nM): -1.13% | percent inhibition of viability ([12]; 1 nM): -9.25% | percent inhibition of viability ([12]; 10 nM): -22.8% | percent inhibition of viability ([12]; 100 nM): -15.8% | percent inhibition of viability ([12]; 1000 nM): -38.7% | percent inhibition of viability ([12]; 10000 nM): -21.4% | percent inhibition of viability ([13]; 1 nM): -14.4% | percent inhibition of viability ([13]; 10 nM): -2.41% | percent inhibition of viability ([13]; 100 nM): 1.68% | percent inhibition of viability ([13]; 1000 nM): -6.8% | percent inhibition of viability ([13]; 10000 nM): -12.2% | percent inhibition of viability ([14]; 1 nM): -12.8% | percent inhibition of viability ([14]; 10 nM): -5.88% | percent inhibition of viability ([14]; 100 nM): -5.23% | percent inhibition of viability ([14]; 1000 nM): -3.37% | percent inhibition of viability ([14]; 10000 nM): -3% | drug sensitivity score [15]: 0.16 | drug sensitivity score [16]: 0 | drug sensitivity score [17]: 1.35 | drug sensitivity score [18]: 0 | drug sensitivity score [19]: 0 | drug sensitivity score [20]: 0 | drug sensitivity score [21]: 0 | drug sensitivity score [22]: 0 | drug sensitivity score [23]: 12.4 | drug sensitivity score [24]: 0 | drug sensitivity score [25]: 0 | drug sensitivity score [26]: 0 | drug sensitivity score [27]: 0 | drug sensitivity score [28]: 0

COc1ccc(Cl)c(Nc2nc3ccccc3nc2NS(=O)(=O)c2cccc(NC(=O)C(C)(C)N)c2)c1 [Pilaralisib] (max concentration tested 2500 nM)
percent inhibition of viability ([1]; 0.25 nM): -5.86% | percent inhibition of viability ([1]; 2.5 nM): -9.89% | percent inhibition of viability ([1]; 25 nM): -4.45% | percent inhibition of viability ([1]; 250 nM): 9.09% | percent inhibition of viability ([1]; 2500 nM): 13% | percent inhibition of viability ([2]; 0.25 nM): 4.27% | percent inhibition of viability ([2]; 2.5 nM): -2.64% | percent inhibition of viability ([2]; 25 nM): 5.48% | percent inhibition of viability ([2]; 250 nM): 2.26% | percent inhibition of viability ([2]; 2500 nM): 47.2% | percent inhibition of viability ([3]; 0.25 nM): -10.7% | percent inhibition of viability ([3]; 2.5 nM): -5.75% | percent inhibition of viability ([3]; 25 nM): -6.19% | percent inhibition of viability ([3]; 250 nM): -0.79% | percent inhibition of viability ([3]; 2500 nM): 3.28% | percent inhibition of viability ([4]; 0.25 nM): -9.17% | percent inhibition of viability ([4]; 2.5 nM): -2.97% | percent inhibition of viability ([4]; 25 nM): -7.92% | percent inhibition of viability ([4]; 250 nM): 0.18% | percent inhibition of viability ([4]; 2500 nM): 28.9% | percent inhibition of viability ([5]; 0.25 nM): -8.15% | percent inhibition of viability ([5]; 2.5 nM): -0.08% | percent inhibition of viability ([5]; 25 nM): -3.78% | percent inhibition of viability ([5]; 250 nM): 6.51% | percent inhibition of viability ([5]; 2500 nM): 17.4% | percent inhibition of viability ([6]; 0.25 nM): 1.29% | percent inhibition of viability ([6]; 2.5 nM): 7.6% | percent inhibition of viability ([6]; 25 nM): 3.1% | percent inhibition of viability ([6]; 250 nM): 33.3% | percent inhibition of viability ([6]; 2500 nM): 47.3% | percent inhibition of viability ([7]; 0.25 nM): -9.63% | percent inhibition of viability ([7]; 2.5 nM): -5.01% | percent inhibition of viability ([7]; 25 nM): -7.74% | percent inhibition of viability ([7]; 250 nM): -2.2% | percent inhibition of viability ([7]; 2500 nM): 23.1% | percent inhibition of viability ([8]; 0.25 nM): -14.9% | percent inhibition of viability ([8]; 2.5 nM): -17.9% | percent inhibition of viability ([8]; 25 nM): -13.7% | percent inhibition of viability ([8]; 250 nM): 0.37% | percent inhibition of viability ([8]; 2500 nM): 31.5% | percent inhibition of viability ([9]; 0.25 nM): -25.1% | percent inhibition of viability ([9]; 2.5 nM): -17.9% | percent inhibition of viability ([9]; 25 nM): -11.5% | percent inhibition of viability ([9]; 250 nM): -18.6% | percent inhibition of viability ([9]; 2500 nM): 12.9% | percent inhibition of viability ([10]; 0.25 nM): -4.96% | percent inhibition of viability ([10]; 2.5 nM): -1.45% | percent inhibition of viability ([10]; 25 nM): 0.38% | percent inhibition of viability ([10]; 250 nM): 4.73% | percent inhibition of viability ([10]; 2500 nM): 42% | percent inhibition of viability ([11]; 0.25 nM): -2.73% | percent inhibition of viability ([11]; 2.5 nM): -2.17% | percent inhibition of viability ([11]; 25 nM): 6.91% | percent inhibition of viability ([11]; 250 nM): 0.33% | percent inhibition of viability ([11]; 2500 nM): 11.2% | percent inhibition of viability ([12]; 0.25 nM): -1.59% | percent inhibition of viability ([12]; 2.5 nM): 14% | percent inhibition of viability ([12]; 25 nM): 8.93% | percent inhibition of viability ([12]; 250 nM): 7.44% | percent inhibition of viability ([12]; 2500 nM): 20.9% | percent inhibition of viability ([13]; 0.25 nM): -6.75% | percent inhibition of viability ([13]; 2.5 nM): -2.47% | percent inhibition of viability ([13]; 25 nM): 3.08% | percent inhibition of viability ([13]; 250 nM): 7.62% | percent inhibition of viability ([13]; 2500 nM): 22.6% | percent inhibition of viability ([14]; 0.25 nM): -0.55% | percent inhibition of viability ([14]; 2.5 nM): -0.41% | percent inhibition of viability ([14]; 25 nM): 8.73% | percent inhibition of viability ([14]; 250 nM): -3.82% | percent inhibition of viability ([14]; 2500 nM): 16% | drug sensitivity score [15]: 0.55 | drug sensitivity score [16]: 2.77 | drug sensitivity score [17]: 0 | drug sensitivity score [18]: 1.25 | drug sensitivity score [19]: 1.04 | drug sensitivity score [20]: 6.61 | drug sensitivity score [21]: 0.68 | drug sensitivity score [22]: 1.45 | drug sensitivity score [23]: 0.01 | drug sensitivity score [24]: 2.91 | drug sensitivity score [25]: 0.02 | drug sensitivity score [26]: 1.41 | drug sensitivity score [27]: 1.39 | drug sensitivity score [28]: 0.19
